Experimental data published in patent publication US10626126B2, “Compounds” (Pulmocide Limited, priority 2016, dated 2020).
Entries after “also recorded” stand apart in the source; their conditions may differ.

How the values were obtained:
RSV A2 strain = assay: RSV A2 induced CPE in HEp2 cells; assay type: cell-based; conditions: human respiratory syncytial virus
In short: (§1)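 HEp2 cells in 5% FBS-DMEM were seeded one day before infection, then virus and compound were added together (0.5% DMSO final). A fluorogenic viability dye was added for a further 6 h at 37 °C, and fluorescence was read at 545/590 nm. Percent inhibition gave IC50, IC75 and IC90 from concentration-response curves.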

RSV B Washington strain = assay: RSV B induced CPE in HEp2 cells; assay type: cell-based; conditions: human respiratory syncytial virus
In short: as §1

[1] = Cell viability: resazurin assay; assay type: cell-based; conditions: human, HEp2 cells
RSV A2 [2] = assay: RSV F protein expression in BEAS2B bronchial epithelial cells; assay type: cell-based; conditions: human respiratory syncytial virus, BEAS-2B, n=2
Method: An early event which follows the infection of epithelial cells by RSV is the expression of RSV F-protein on the cells' surface. BEAS2B cells were grown in 96 well plates. […] Supernatant was aspirated and the cells were fixed with 4% formaldehyde (100 μL in PBS solution) for 20 min, washed 3 times with washing buffer (200 μL; PBS containing 0.05% Tween-20) and incubated with blocking solution (100 μL; 5% BSA in washing buffer) for 1 hr. […] No. ab43812, Abcam plc, Cambridge, UK) F-fusion protein antibody (50 μL; prepared at a 1:2000 dilution in 5% BSA/washing buffer). After washing, cells were incubated with an HRP-conjugated anti-mouse IgG antibody (50 μL prepared at a 1:2000 dilution in 5% BSA in PBS; lot 00095437, Cat. No. P0447, Dako UK Ltd, Cambridgeshire, UK) for 1 hr. […] The resultant signal was determined colourimetrically (OD: 450 nm with a reference wavelength of 655 nm) in a microplate reader (Multiskan FC®, ThermoFisher Scientific). […] After washing with PBS (200 μL) 2 times, 1% SDS (100 μL) was added to each well, and plates were shaken lightly for 1 hr prior to reading the absorbance at 595 nm. The measured OD450-655 readings were corrected for cell number by dividing the OD450-655 by the OD595 readings. The percentage inhibition for each well was calculated and the IC50 value derived from the concentration-response curve generated for each test compound.

RSV NS-1 gene = assay: RSV infection in cotton rats: RSV NS-1 gene expression in lung (qRT-PCR); assay type: in vivo, Sigmodon hispidus cotton rats; conditions: intranasal
hRSV/A/Long = assay: RSV infection in cotton rats: viral titre in lung (plaque assay); conditions: intranasal; for Virus titre in lung, Geometric Mean / Virus titre in lung, Median: day 4 post infection
Method: (§2) Male Sigmodon hispidus cotton rats between 6 and 8 weeks of age were infected with hRSV/A/Long (ATCC, Manassas, Va.; 10^5 pfu) in a volume of 0.1 mL of sucrose stabilizing media. Test compounds were dissolved in 100% DMSO (at 3.3, 10, 33 and 100 mg/mL), then diluted (1:10 in isotonic saline to achieve 10% DMSO in all treatments) and sonicated to produce suspensions which were administered intranasally (50 μL) by pipette 4 hr before infection (on day 0), and then on days 1, 2 and 3 post infection. Four days after RSV challenge, the animals were euthanised and the lungs removed.
The supernatants of lung homogenates were diluted 1:10 and 1:100 in Eagle (E)-MEM. Confluent HEp2 monolayers in 24-well plates were infected in duplicate (50 μL of sample per well) starting with undiluted (neat) samples followed by diluted homogenates. After incubation for 1 hr (37° C./5% CO2) wells were overlaid with 0.75% methylcellulose medium and plates replaced in the 37° C. incubator. After incubation (for 4 days), the overlay was removed, the cells fixed with 0.1% crystal violet stain (for 1 hr) and then rinsed and air-dried. Plaques were counted and viral titers were expressed as plaque forming units per gram (pfu.g^−1) of tissue.

RANTES gene = assay: RSV infection in cotton rats: RANTES gene expression in lung (qRT-PCR); conditions: intranasal
Method: as §2
Total RNA was also extracted from homogenized lung tissue (RNeasy purification kit; Qiagen) and a sample (1 μg) used to prepare cDNA using QuantiTect Reverse Transcription Kit (Qiagen). For real-time PCR reactions (RSV NS-1 and RANTES genes) the QuantiFast SYBR® Green PCR Kit (Qiagen) was used in a final volume of 25 μL, with final primer concentrations of 0.5 μM. Amplifications were performed on a Bio-Rad iCycler for 1 cycle of 950C for 3 min, followed by 40 cycles of 950C for 10 sec, 600C for 10 sec, and 720C for 15 sec. Baseline cycles and cycle threshold (Ct) were calculated by the iQ5 software in the PCR Base Line Subtracted Curve Fit mode.
The standard curves were developed using the serially diluted cDNA sample most enriched in the transcript of interest (e.g., lungs from day 4 post-primary RSV infection). The Ct values were plotted against log10 cDNA dilution factor and the curves were used to convert the Ct values obtained for different samples to relative expression units, which were then normalized against the level of R-actin mRNA (“housekeeping gene”) expressed in the corresponding sample. The mRNA levels were expressed as the geometric mean±SEM for all animals in a group.

RSV A2 [3] = assay: Virus titre in air-liquid interface (ALI) cultured bronchial epithelial cells; conditions: for Virus titre in apical wash, geometric mean: late intervention (days 3-7), 0.1 mg/mL
Method: ALI cultured human bronchial epithelial cells were sourced from Epithelix Sarl (Geneva, Switzerland) and maintained by changing the basal media every 3-4 days, whilst the apical surface was washed once weekly with PBS. On day 0, the apical surface of each well was washed once with sterile PBS (300 μL) and the inserts transferred to new 24-well plates containing fresh MucilAir culture medium (780 μL; EP04MM). RSV A2 (50 μL; diluted in MucilAir culture medium to give a final MOI of 0.01) was added to cells for one hr (37° C./5% CO2). For the purposes of standardizing MOI calculations, each MucilAir insert was estimated to contain 2×10^5 apical facing cells per well. Virus inoculum was removed with a pipette and inserts were washed twice with sterile PBS (300 μL).
Sampling was conducted by adding sterile PBS (300 μL) to the apical surface of each well for 5 min. The apical sample was then removed and transferred to tubes containing 50% sucrose dissolved in PBS (100 μL) before being stored at −80° C. This harvesting procedure was repeated daily beginning on day 0 and concluding on day 10.
The test compound (50 μL in 0.5% DMSO/PBS) was added to the apical surface and incubated (37° C./5% CO2) for 1 hr before being removed. Vehicle treatments (0.5% DMSO/PBS) were performed on the corresponding apical surfaces to ensure each well received the same number of manipulations. On day 5, the basal media was removed from each well and replenished with fresh MucilAir culture media as a necessary maintenance step for ALI culture cells.
Virus titre was quantified by plaque assay. HEp2 cells were grown in 24-well plates (Corning) for 48 hr prior to infection in DMEM containing 10% FBS until they attained 100% confluency.
Collected samples were thawed at RT and ten-fold serial dilutions were prepared in serum-free DMEM. The growth medium from HEp2 cells was aspirated and replaced with 300 μL of serially diluted virus collections and left to infect at 37° C./5% CO2 for 4 hr. The infectious media was aspirated and replaced with 1 mL Plaque Assay Overlay (0.3% Avicel RC-591 (FMC Biopolymer UK, Girvan, Scotland)) in MEM, supplemented to a final concentration of 2% FCS), and left for 7 days at 37° C./5% CO2. Cells were fixed with ice-cold methanol for 10 min, then removed and cells subjected to two washes with sterile PBS. Cells were then stained with crystal violet solution (200 μL 0.1%, in distilled water) for 1 hr. Crystal violet solution was removed and cells rinsed with water before plaques were counted and virus titre enumerated.

## Cc1cnc(N2CC3(CCOCC3)C2)c(C(=O)Nc2ccc(C(=O)N3CCc4cc(C(=O)Nc5c(F)cccc5F)sc4-c4sccc43)cc2)c1 [Example 1, N-(2,6-Difluorophenyl)-4-(4-(5-methyl-2-(7-oxa-2-azaspiro[3.5]nonan-2-yl)nicotinamido)benzoyl)-5,6-dihydro-4H-dithieno[3,2-b:2′,3′-d]azepine-8-carboxamide]
RSV A2 strain; HEp-2, 120 h, 5 days
  IC50: 0.11 nM
RSV A2 strain; HEp-2, at 0.01 μg/mL
  inhibition at 0.01 µg/mL: 100%
RSV B Washington strain; HEp-2, 144 h, 6 days
  IC50: 9 nM
RSV B Washington strain; HEp-2, at 0.1 μg/mL
  inhibition at 0.1 µg/mL: 100%
[1]
  CC50 at 5 days: > 13800 nM
RSV A2 [2]
  IC50: 0.021 nM
  IC90: 0.078 nM
RSV NS-1 gene
  inhibition of RSV NS-1 gene transcripts (in words): dose-dependent inhibition
RSV NS-1 gene; 0.33 mg/mL
  RSV NS1 gene transcript % inhibition: −42%
  RSV NS1 gene transcript (/β-actin), Median: 4.4
RSV NS-1 gene; 1.0 mg/mL
  RSV NS1 gene transcript % inhibition: 39%
  RSV NS1 gene transcript (/β-actin), Median: 1.9
RSV NS-1 gene; 3.3 mg/mL
  RSV NS1 gene transcript % inhibition: 48%
  RSV NS1 gene transcript (/β-actin), Median: 1.6
RSV NS-1 gene; 10 mg/mL
  RSV NS1 gene transcript % inhibition: 68%
  RSV NS1 gene transcript (/β-actin), Median: 1.0
hRSV/A/Long; 0.1 mg/mL
  Virus titre in lung, Geometric Mean: 5.4 log, PFU/lung
  Virus titre in lung, Median: 5.4 log, PFU/lung
hRSV/A/Long; 0.33 mg/mL
  Virus titre in lung, Geometric Mean: 5.0 log, PFU/lung
  Virus titre in lung, Median: 5.0 log, PFU/lung
hRSV/A/Long; 1.0 mg/mL
  Virus titre in lung, Geometric Mean: 4.3 log, PFU/lung
  Virus titre in lung, Median: 4.3 log, PFU/lung
hRSV/A/Long; 3.3 mg/mL
  Virus titre in lung, Geometric Mean: <2.3^2 log, PFU/lung
  Virus titre in lung, Median: <2.3 log, PFU/lung
hRSV/A/Long; RSV/A/Long infected cotton rats
  inhibition of viral titre in lung homogenates (in words): potent dose-dependent inhibition of viral titre; also recorded: completely inhibited virus titre
RANTES gene
  inhibition of RANTES transcripts in lung (in words): dose-dependent inhibition
RANTES gene; 0.33 mg/mL
  RANTES gene transcript % Inhibition: −8%
  RANTES gene transcript (/β-actin), Median: 3.9
RANTES gene; 1.0 mg/mL
  RANTES gene transcript % Inhibition: 36%
  RANTES gene transcript (/β-actin), Median: 2.3
RANTES gene; 3.3 mg/mL
  RANTES gene transcript % Inhibition: 36%
  RANTES gene transcript (/β-actin), Median: 2.3
RANTES gene; 10 mg/mL
  RANTES gene transcript % Inhibition: 61%
  RANTES gene transcript (/β-actin), Median: 1.4
RSV A2 [3]; day 0
  Virus titre in apical wash, geometric mean: 0 log PFU/mL
RSV A2 [3]; day 1
  Virus titre in apical wash, geometric mean: 2.14 log PFU/mL
RSV A2 [3]; day 2
  Virus titre in apical wash, geometric mean: 3.05 log PFU/mL
RSV A2 [3]; day 3
  Virus titre in apical wash, geometric mean: 5.18 log PFU/mL
RSV A2 [3]; day 4
  Virus titre in apical wash, geometric mean: 3.55 log PFU/mL
RSV A2 [3]; day 5
  Virus titre in apical wash, geometric mean: 3.68 log PFU/mL
RSV A2 [3]; day 6
  Virus titre in apical wash, geometric mean: 2.24 log PFU/mL
RSV A2 [3]; day 7
  Virus titre in apical wash, geometric mean: 1.71 log PFU/mL
RSV A2 [3]; late stage intervention
  inhibition of virus titre in ALI culture (in words): completely inhibited virus titre
